For experiment [1], the target named is T1, Prostaglandin G/H synthase 1 (Rattus norvegicus, UniProt Q63921).
T1 sequence (Q63921 whole entry): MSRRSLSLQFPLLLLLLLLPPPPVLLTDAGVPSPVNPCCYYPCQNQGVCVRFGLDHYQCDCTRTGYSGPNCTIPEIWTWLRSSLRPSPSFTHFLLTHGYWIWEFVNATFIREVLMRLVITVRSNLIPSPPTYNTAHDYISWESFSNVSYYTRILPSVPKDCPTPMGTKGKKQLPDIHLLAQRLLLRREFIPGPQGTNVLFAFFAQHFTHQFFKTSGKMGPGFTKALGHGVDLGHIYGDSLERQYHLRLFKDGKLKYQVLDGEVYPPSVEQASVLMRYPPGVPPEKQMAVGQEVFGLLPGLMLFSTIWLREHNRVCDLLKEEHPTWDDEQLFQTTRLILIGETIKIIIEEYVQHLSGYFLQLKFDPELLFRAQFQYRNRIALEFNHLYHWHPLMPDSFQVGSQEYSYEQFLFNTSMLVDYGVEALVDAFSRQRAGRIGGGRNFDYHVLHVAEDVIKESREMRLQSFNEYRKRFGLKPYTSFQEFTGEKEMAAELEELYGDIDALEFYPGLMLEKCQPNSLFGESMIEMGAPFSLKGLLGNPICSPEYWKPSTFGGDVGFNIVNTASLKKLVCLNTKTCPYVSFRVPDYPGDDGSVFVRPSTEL
It counts as functional.

For experiment [2], the target named is cGMP-inhibited 3',5'-cyclic phosphodiesterase 3A (Homo sapiens, UniProt Q14432). It counts as functional.
For experiment [3], the target named is T2, Type-1 angiotensin II receptor (Homo sapiens, UniProt P30556).
T2 sequence (P30556 whole entry): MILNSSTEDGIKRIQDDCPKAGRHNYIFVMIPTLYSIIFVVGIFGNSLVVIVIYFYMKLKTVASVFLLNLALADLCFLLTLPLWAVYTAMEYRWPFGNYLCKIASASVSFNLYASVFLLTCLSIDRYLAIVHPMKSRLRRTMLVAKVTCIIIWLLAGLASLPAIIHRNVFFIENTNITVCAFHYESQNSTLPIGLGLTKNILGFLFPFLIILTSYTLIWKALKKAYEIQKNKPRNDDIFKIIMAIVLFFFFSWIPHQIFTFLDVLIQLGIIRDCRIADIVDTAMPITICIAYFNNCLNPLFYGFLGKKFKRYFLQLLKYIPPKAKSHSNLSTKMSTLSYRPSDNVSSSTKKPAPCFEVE

Experiment [4] has as its target Beta-2 adrenergic receptor (Homo sapiens, UniProt P07550). It counts as functional, cell-based.
For experiment [5], the target named is T3, Amine oxidase [flavin-containing] A (Homo sapiens, UniProt P21397).
T3 sequence (P21397 whole entry): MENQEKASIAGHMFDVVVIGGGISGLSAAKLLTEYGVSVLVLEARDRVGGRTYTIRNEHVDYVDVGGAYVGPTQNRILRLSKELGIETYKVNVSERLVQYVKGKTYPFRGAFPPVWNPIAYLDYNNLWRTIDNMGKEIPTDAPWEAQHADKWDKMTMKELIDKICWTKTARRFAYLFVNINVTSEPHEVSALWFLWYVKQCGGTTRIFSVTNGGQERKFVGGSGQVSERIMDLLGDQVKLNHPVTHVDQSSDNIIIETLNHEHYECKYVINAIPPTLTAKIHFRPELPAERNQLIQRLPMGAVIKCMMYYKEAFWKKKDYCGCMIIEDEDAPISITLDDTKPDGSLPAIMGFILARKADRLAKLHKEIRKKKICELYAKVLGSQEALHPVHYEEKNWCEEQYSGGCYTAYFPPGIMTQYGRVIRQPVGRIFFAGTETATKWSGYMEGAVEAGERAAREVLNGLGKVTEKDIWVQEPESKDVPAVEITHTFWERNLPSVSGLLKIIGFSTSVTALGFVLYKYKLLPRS
It counts as functional.

The target of experiment [6] is D(1A) dopamine receptor (Homo sapiens, UniProt P21728). It counts as functional, cell-based.
Experiment [7] concerns the target Melanocortin receptor 4 (Homo sapiens, UniProt P32245).
Experiment [8] has as its target Vasopressin V1a receptor (Homo sapiens, UniProt P37288).
The target in experiment [9] is D(3) dopamine receptor (Homo sapiens, UniProt P35462).
In experiment [10] the target is Neuronal acetylcholine receptor subunit alpha-4 (Homo sapiens, UniProt P43681).
Experiment [11] concerns the target Growth hormone secretagogue receptor type 1 (Homo sapiens, UniProt Q92847).
Experiment [12] addresses T4, Neuropeptide Y receptor type 1 (Homo sapiens, UniProt P25929).
T4 sequence (P25929 whole entry): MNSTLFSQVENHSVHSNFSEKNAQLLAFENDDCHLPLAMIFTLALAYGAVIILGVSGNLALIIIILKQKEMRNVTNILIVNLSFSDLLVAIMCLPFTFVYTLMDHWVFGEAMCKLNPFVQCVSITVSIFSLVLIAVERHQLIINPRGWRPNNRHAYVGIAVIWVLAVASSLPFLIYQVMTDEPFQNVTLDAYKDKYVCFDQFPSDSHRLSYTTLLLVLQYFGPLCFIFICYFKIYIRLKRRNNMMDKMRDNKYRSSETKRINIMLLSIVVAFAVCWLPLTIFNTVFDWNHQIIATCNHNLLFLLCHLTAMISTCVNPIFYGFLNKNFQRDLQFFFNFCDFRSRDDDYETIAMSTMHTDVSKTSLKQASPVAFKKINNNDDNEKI
The following applies: read-out: AC50.

Experiment [13] addresses Vascular endothelial growth factor receptor 2 (Homo sapiens, UniProt P35968). It counts as functional.

A value given as a limit tells only on which side of the number the result lay.

The term AC50 denotes the concentration giving half of the maximal activity seen.
Also: assay procedure not described here.

Chain of Vasopressin V1a receptor (P37288 whole entry): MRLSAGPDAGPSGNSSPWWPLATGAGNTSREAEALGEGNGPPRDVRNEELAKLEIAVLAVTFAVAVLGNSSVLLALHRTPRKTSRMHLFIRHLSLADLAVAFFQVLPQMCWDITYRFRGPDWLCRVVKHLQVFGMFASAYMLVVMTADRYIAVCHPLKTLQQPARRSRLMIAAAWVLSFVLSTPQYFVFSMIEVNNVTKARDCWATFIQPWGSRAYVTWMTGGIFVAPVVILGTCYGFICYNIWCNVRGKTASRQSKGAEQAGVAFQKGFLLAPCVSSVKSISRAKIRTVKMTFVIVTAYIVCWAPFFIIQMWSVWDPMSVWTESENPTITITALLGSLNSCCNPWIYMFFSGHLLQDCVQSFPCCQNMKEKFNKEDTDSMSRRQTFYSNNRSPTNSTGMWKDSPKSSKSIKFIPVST
Chain of Beta-2 adrenergic receptor (P07550 whole entry): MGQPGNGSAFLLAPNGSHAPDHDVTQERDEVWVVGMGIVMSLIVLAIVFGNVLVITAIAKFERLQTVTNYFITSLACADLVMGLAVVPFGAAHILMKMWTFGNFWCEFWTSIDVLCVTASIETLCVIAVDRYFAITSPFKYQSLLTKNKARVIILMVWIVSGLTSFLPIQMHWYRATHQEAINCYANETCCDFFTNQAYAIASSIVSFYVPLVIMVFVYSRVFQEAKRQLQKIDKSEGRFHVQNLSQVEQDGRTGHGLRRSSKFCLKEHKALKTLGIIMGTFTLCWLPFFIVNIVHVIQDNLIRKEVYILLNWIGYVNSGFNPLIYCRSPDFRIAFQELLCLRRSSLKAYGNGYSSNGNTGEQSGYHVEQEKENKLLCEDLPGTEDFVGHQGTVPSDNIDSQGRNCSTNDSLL
Chain of cGMP-inhibited 3',5'-cyclic phosphodiesterase 3A (Q14432 whole entry): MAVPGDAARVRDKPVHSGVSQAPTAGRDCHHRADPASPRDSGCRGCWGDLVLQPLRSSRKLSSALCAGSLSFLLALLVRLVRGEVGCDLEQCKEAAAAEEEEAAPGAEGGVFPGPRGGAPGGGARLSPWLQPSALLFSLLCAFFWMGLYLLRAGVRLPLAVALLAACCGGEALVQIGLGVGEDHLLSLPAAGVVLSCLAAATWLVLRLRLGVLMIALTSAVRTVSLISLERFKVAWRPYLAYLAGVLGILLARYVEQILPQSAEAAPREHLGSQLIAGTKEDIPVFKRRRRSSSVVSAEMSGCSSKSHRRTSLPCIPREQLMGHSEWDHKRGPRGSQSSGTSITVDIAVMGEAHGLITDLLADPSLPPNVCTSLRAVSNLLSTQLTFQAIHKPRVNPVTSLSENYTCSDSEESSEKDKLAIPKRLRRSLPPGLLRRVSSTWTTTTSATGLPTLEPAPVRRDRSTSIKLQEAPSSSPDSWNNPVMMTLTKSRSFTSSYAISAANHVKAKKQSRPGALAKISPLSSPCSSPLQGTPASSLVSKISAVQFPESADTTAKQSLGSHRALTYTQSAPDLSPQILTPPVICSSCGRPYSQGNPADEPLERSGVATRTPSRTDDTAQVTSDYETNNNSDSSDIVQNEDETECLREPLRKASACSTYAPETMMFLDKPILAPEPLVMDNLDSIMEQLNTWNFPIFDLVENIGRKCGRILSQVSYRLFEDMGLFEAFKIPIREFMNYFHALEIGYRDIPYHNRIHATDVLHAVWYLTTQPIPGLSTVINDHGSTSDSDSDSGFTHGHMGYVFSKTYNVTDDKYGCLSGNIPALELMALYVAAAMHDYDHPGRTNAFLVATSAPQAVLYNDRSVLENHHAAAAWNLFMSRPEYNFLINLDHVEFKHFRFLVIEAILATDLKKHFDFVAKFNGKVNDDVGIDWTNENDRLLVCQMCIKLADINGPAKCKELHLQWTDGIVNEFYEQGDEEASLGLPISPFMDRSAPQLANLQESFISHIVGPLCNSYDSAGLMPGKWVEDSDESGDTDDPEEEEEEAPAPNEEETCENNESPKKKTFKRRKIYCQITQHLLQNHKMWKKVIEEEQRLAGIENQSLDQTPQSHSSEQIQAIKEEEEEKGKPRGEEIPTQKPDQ
Chain of Neuronal acetylcholine receptor subunit alpha-4 (P43681 whole entry): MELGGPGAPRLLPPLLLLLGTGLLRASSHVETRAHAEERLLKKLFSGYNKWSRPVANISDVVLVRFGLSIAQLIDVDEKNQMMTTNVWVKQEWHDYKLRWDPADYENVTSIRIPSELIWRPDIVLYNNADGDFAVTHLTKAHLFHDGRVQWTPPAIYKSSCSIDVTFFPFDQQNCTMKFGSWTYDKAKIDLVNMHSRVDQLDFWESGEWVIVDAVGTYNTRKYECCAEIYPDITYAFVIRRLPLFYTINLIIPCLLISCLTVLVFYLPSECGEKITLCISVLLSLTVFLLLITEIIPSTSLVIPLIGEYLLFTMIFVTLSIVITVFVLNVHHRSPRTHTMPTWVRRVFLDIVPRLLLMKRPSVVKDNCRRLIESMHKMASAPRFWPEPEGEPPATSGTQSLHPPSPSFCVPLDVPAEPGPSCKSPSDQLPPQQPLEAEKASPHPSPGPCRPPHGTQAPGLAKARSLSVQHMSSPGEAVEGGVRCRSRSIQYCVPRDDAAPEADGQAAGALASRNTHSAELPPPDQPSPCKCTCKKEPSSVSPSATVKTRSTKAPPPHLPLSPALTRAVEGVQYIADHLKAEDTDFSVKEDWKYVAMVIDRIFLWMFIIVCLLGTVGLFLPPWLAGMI
Chain of D(3) dopamine receptor (P35462 whole entry): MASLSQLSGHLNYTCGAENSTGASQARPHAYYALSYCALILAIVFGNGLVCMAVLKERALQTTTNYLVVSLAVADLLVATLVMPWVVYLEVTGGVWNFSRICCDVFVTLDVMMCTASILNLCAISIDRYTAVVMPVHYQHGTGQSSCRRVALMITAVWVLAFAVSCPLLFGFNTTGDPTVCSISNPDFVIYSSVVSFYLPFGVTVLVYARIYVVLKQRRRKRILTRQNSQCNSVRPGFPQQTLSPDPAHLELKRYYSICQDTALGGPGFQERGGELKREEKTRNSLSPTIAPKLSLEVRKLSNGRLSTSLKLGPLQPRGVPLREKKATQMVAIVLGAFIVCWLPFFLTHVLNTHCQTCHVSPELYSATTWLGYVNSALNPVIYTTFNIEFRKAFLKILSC
Chain of D(1A) dopamine receptor (P21728 whole entry): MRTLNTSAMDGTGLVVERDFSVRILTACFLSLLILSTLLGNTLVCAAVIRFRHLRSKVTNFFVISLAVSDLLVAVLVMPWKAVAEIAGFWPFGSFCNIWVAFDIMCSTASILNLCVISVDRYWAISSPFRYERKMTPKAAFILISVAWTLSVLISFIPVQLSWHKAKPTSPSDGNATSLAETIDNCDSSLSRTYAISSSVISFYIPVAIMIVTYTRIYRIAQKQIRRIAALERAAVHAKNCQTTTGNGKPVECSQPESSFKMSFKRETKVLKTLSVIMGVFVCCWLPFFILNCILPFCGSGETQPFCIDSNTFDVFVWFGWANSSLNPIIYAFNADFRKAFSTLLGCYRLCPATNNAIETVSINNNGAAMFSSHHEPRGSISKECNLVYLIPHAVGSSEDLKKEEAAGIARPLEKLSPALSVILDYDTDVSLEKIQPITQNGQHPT
Chain of Growth hormone secretagogue receptor type 1 (Q92847 whole entry): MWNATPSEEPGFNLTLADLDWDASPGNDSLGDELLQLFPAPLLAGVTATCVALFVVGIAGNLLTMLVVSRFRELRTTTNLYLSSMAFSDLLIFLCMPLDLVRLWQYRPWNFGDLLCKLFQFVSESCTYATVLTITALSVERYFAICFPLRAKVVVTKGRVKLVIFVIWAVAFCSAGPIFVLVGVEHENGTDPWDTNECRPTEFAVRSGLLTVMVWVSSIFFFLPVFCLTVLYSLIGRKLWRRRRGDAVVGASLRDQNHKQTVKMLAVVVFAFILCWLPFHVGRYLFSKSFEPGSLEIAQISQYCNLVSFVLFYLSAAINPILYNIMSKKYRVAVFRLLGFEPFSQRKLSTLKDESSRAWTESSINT
Chain of Melanocortin receptor 4 (P32245 whole entry): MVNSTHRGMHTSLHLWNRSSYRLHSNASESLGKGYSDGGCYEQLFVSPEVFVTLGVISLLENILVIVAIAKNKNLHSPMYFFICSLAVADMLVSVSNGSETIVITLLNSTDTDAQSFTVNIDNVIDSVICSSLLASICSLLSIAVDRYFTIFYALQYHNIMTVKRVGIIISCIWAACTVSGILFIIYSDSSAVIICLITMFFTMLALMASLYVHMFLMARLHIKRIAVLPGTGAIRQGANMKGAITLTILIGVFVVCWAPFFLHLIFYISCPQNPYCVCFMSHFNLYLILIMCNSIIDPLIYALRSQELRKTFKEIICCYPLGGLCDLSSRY

In the case of `COc1ccccc1Oc1c(NS(=O)(=O)c2ccc(C(C)(C)C)cc2)nc(-c2ncccn2)nc1OCCO` [BOSENTAN], the concentration at half-maximal activity (AC50) is greater than 30 µM in experiment [1]; greater than 30 µM in [2]; greater than 30 µM in experiment [3]; greater than 30 µM in experiment [4]; greater than 10 µM in experiment [5]; greater than 10 µM in [6]. For the same compound, the AC50 in [7], in experiment [8], in experiment [9], in [10], in experiment [11] and in experiment [12] was greater than 30 µM each time.
Turning to `CC(C)N(CCC(C(N)=O)(c1ccccc1)c1ccccn1)C(C)C` (configuration not stated) [DISOPYRAMIDE], the AC50 was 13.6 µM in [1]; 5.4 µM in [2]; greater than 30 µM in [3]; greater than 30 µM in [4]; greater than 10 µM in experiment [5]; greater than 10 µM in [6]. Also, the AC50 in experiment [7], in [8], in experiment [9], in experiment [10], in [11] and in experiment [12] was greater than 30 µM in each case.
As to `C[C@H]1c2cccc(O)c2C(=O)C2=C(O)[C@]3(O)C(=O)C(C(N)=O)=C(O)[C@@H](N(C)C)[C@@H]3[C@@H](O)[C@@H]21` [DOXYCYCLINE], the AC50 was greater than 30 µM in experiment [1]; greater than 30 µM in experiment [2]; greater than 30 µM in experiment [3]; greater than 30 µM in experiment [4]; greater than 10 µM in experiment [5]; greater than 10 µM in [6]. The AC50 in experiment [7] was greater than 30 µM; in experiment [8] it was greater than 10 µM; in experiment [9], greater than 10 µM; in [10] it was greater than 10 µM; in experiment [11] it was greater than 30 µM; in [12], greater than 30 µM.
On to `CC(C)Cc1ccc(C(C)C(=O)O)cc1` (configuration not stated) [IBUPROFEN], for which the AC50 in experiment [2] was greater than 30 µM; in [3], greater than 30 µM; in experiment [4] it was greater than 30 µM; in experiment [5], greater than 10 µM; in experiment [6] it was greater than 10 µM; in [7], greater than 30 µM. Moreover, the AC50 was greater than 30 µM in experiment [8]; greater than 30 µM in experiment [9]; greater than 10 µM in experiment [10]; greater than 30 µM in experiment [11]; greater than 30 µM in experiment [13]; greater than 30 µM in [12].
For the compound `C=C[C@H]1C[N@@]2CC[C@H]1C[C@@H]2[C@@H](O)c1ccnc2ccc(OC)cc12` [QUINIDINE], the AC50 is greater than 30 µM in experiment [1]; greater than 30 µM in experiment [2]; greater than 30 µM in experiment [3]; greater than 30 µM in experiment [4]; greater than 10 µM in experiment [5]; greater than 10 µM in experiment [6]. The AC50 was greater than 30 µM in [7]; greater than 30 µM in [8]; 2.8 µM in experiment [9]; greater than 30 µM in experiment [11]; greater than 30 µM in experiment [12].
On to `CN(C)CCc1c[nH]c2ccc(Cn3cncn3)cc12` [RIZATRIPTAN], for which the concentration at half-maximal activity (AC50) in [1], in experiment [2], in experiment [3], in experiment [4], in experiment [5] and in [6] was greater than 30 µM in each case. Also, the AC50 is greater than 30 µM in experiment [7]; greater than 10 µM in experiment [8]; greater than 30 µM in experiment [9]; greater than 10 µM in [10]; greater than 30 µM in [11]; greater than 30 µM in experiment [12].
Turning to `N[C@@H](CC(=O)N1CCn2c(nnc2C(F)(F)F)C1)Cc1cc(F)c(F)cc1F` [SITAGLIPTIN], the AC50 in [1], in experiment [2], in experiment [3], in experiment [4], in experiment [5] and in [6] was greater than 30 µM each time. For the same compound, the AC50 was greater than 10 µM in [7]; greater than 30 µM in experiment [8]; greater than 30 µM in [9]; greater than 30 µM in experiment [10]; greater than 30 µM in [11]; greater than 10 µM in experiment [12].
With `Nc1ccc(S(=O)(=O)Nc2nccs2)cc1` [SULFATHIAZOLE], the AC50 in experiment [1] is greater than 30 µM; in experiment [2], greater than 30 µM; in experiment [3] it was greater than 30 µM; in [4] it was greater than 30 µM; in experiment [5], greater than 10 µM; in experiment [6] it was greater than 10 µM. Further, the AC50 was greater than 30 µM in experiment [7]; greater than 10 µM in [8]; greater than 10 µM in [9]; greater than 10 µM in [10]; greater than 30 µM in experiment [11]; greater than 30 µM in [12].
As to `O=C1C(CC[S+]([O-])c2ccccc2)C(=O)N(c2ccccc2)N1c1ccccc1` (configuration not stated) [SULFINPYRAZONE], the concentration at half-maximal activity (AC50) is greater than 10 µM in experiment [1]; greater than 30 µM in experiment [2]; greater than 10 µM in experiment [3]; greater than 30 µM in [4]; greater than 10 µM in [5]; greater than 10 µM in experiment [6]. In addition, the AC50 was greater than 10 µM in [7]; greater than 10 µM in experiment [8]; greater than 30 µM in experiment [9]; greater than 10 µM in experiment [10]; greater than 10 µM in [11]; greater than 10 µM in experiment [12].
As to `C=CC[C@@H]1/C=C(\C)C[C@H](C)C[C@H](OC)[C@H]2O[C@@](O)(C(=O)C(=O)N3CCCC[C@H]3C(=O)O[C@H](/C(C)=C/[C@@H]3CC[C@@H](O)[C@H](OC)C3)[C@H](C)[C@@H](O)CC1=O)[C@H](C)C[C@@H]2OC` [TACROLIMUS ANHYDROUS], the AC50 in [1], in experiment [2], in experiment [3], in [4], in experiment [5] and in experiment [6] was greater than 30 µM in each case. In addition, the AC50 in experiment [7], in [8], in [9], in experiment [10], in experiment [11] and in experiment [12] was greater than 30 µM throughout.
In the case of `Cc1onc(-c2ccccc2)c1-c1ccc(S(N)(=O)=O)cc1` [VALDECOXIB], the AC50 in experiment [1] is greater than 30 µM; in [2], greater than 30 µM; in [3] it was greater than 30 µM; in experiment [4], greater than 30 µM; in [5], greater than 10 µM; in experiment [6], greater than 10 µM. The AC50 in [7], in [8], in experiment [9], in [10], in experiment [11] and in experiment [13] was greater than 30 µM throughout. In addition, the half-maximal activity concentration (AC50) in [12] is greater than 30 µM.
